From patent US20230390315A1, “COMPOSITIONS AND METHODS FOR TREATING ISCHEMIC CONDITIONS” (The Regents of the University of California, priority 2020, published 2023)

Legend:
[1] = system: VEGFR2; experiment: VEGF/VEGFR2 expression, cell surface amount and VEGFR2 activation in BCECs; assay type: cell-based, bovine
Method: Cells were allowed to reach 80% confluency in 12-well plates. […] At various time points, plates were taken out of the incubator and kept on ice. Cell monolayers were first washed once with ice-cold PBS before lysis with 250 μl of Pierce RIPA buffer (ThermoFisher Scientific, Rockford, IL) or use 50 mM Tris-HCl (pH 7.6), 150 mM NaCl, 10% Glycerol, 1% NP-40 containing protease/Phosphatase inhibitor cocktail (100×) (Cell signaling, #5872). Lysates were collected and mixed with 4×Bolt LDS Sample Buffer (Novex, Carlsbad, CA) in the presence of Halt protease inhibitors and phosphatase inhibitor cocktail (ThermoFisher scientific, #NP0007). The samples were subjected to SDS-PAGE (Bolt 4-12% Bis-Tris Plus, Invitrogen) using Bolt MES SDS running buffer or NuPAGE 3-8% Tris-Acetate gel using Tris-Acetate SDS running buffer (Novex). HUVECs (passage 6-8) were plated in EBM-2 basal medium (Lonza) with 0.2% FBS. […] Equal amounts of protein lysates were analyzed by SDS-PAGE and blotted with the indicated antibodies. Proteins were transferred using Tris-Glycine buffer with 20% Methanol (Proteonomics grade) (Apex BioResearch Products). Membranes were first incubated with 5% milk in TBST, pH 7.6 (TEKnova, Hollister, CA), followed by blotting with primary and secondary antibodies. ECL anti-rabbit IgG, horseradish peroxidase linked whole antibody from donkey or sheep anti-mouse were obtained from GE Healthcare (UK limited). SuperSignal West Dura Extended Duration substrate was from ThermoFisher Scientific. In some cases, the same PVDF membranes were stripped by 8-min incubation in the Restore Plus Western Blot Stripping Buffer (ThermoFisher Scientific) to show total specific protein expression, followed by second stripping for β-actin expression. BCECs were plated in 10 cm cell culture dishes 3 days prior to the cell surface protein isolation. Cells were washed three times with Dulbecco's PBS with CaCl2 and MgCl2, followed by a 30 min incubation with EZ-Link Sulfo-NHS-SS-Biotin (Pierce, Rockford, IL, USA; 0.5 mg/ml in Dulbecco) on ice. […] For cell lysis 500 […]1 of lysis buffer (2% NP-40, 1% Triton X-100, 10% glycerol, 100 uM oxidized glutathione, EDTA free protease inhibitor tablet (Roche, Mannheim, Germany) in PBS was added to the cells. Lysed cell extracts were scraped off the plates and transferred to an Eppendorf tube followed by incubation on ice on a shaker for 30 mins. The cell extracts were incubated with 30 U of DNase (22° C. 50 mins, Roche, Mannheim, Germany) and centrifuged for 20 mins (20,800×g, at 4° C.) to pellet the insoluble material. The protein concentration of the supernatants was determined. Equal amounts of protein ( 2 mg) from each extract were used for cell surface protein isolation. […]

[2] = system: human retinal microvascular EC (hRMECs); experiment: hRMEC proliferation assay; assay type: cell-based
Method: Proliferation assays with BCECs and BRECs were performed. Log-phase growing BCECs or BRECs (passage <10) were trypsinized, re-suspended and seeded in 96-well plates (no coating) in low-glucose DMEM supplemented with 10% bovine calf serum, 2 mM glutamine, and antibiotics (growth medium), at a density of 1200-1500 cells per well in 200 μl volume. All reagents were added at the indicated final concentrations. After 3-6 days, cells were incubated with AlamarBlue for 4 hrs. Fluorescence was measured at 530 nm excitation wavelength and 590 nm emission wavelength. The experiments were repeated at least three times. To create a hypoxic condition, cells were placed in a hypoxia incubator with a mixture of gas consisting of 1% 02, 5% CO2 and 94% Nz. On each 96-well plate, untreated and VEGF-treated (10/ng/ml) wells were included to monitor plate-to-plate variations. 20% methanol or 0.05% DMSO served as negative controls. 0.05% DMSO served as negative controls when Cas was tested in these cells. Human RMVECs and human adult DMVECs were split into Gelatin-coated 96 wells (2000 cells per well) in low glucose DMEM containing 10% FBS. 1200 cells/well was set up for proliferation assay in low glucose media containing FBS. Data was collected at day 4 or 5. HUVEC (p7-10) were grown on gelatin-coated plate until it reached 70-80% confluency.

N[C@H](C=O)[C@@H](O)[C@H](O)[C@H](O)CO [ManN, 2-Amino-2-deoxy-D-mannose]
amount of VEGFR2 on cell surface (biotinylation) [1]: no changes in the amount of VEGFR2 on cell surface | transcription of VEGF, VEGFR2, GLUT1 & 4 and total VEGFR2 protein expression ([1]; 4 hours (gene) or 24 hours (protein)): neither transcription of VEGF, VEGFR2 and GLUT1 & 4 nor total VEGFR2 protein expression was significantly changed | VEGFR2 phosphorylation in response to VEGF ([1]; ManN pre-treated cells): decreased | ligand-independent VEGFR2 activation ([1]; after ManN addition): No ligand-independent VEGFR2 activation occurred | additivity with VEGF on proliferation [2]: dose-dependent additivity with VEGF | toxicity ([2]; at 5 mM): minimal toxicity
